The results in this text go back to patent US20230158034A1, “CO-TREATMENT WITH CDK4/6 AND CDK2 INHIBITORS TO SUPPRESS TUMOR ADAPTATION TO CDK2 INHIBITORS” (Pfizer Inc., priority 2020, published 2023).

For experiment [1], the system named is MCF10A, RPE-hTERT, MCF7 and OVCAR3 cells. The experiment can be described thus: Cell-cycle progression, mitosis and proliferation by time-lapse imaging. The experiment is classed as cell-based, human. From the text: The DHB sensor is localized to the nucleus when it is not phosphorylated. Upon phosphorylation, the nuclear localization signal is masked, the nuclear export signal is unmasked, and the sensor steadily translocates to the cytoplasm in response to increasing CDK2 activity (FIG. 1A). Thus, kinase activity can be quantified by the ratio of the cytoplasmic to nuclear fluorescence intensity (C/N ratio) of the DHB sensor. […] Asynchronously cycling cells were first imaged for approximately 20 hr in the absence of drug to establish the cell-cycle phase of each cell; the movie was then paused to add drug, and then imaging was continued for another 1-2 days. Because the cells were cycling asynchronously, all cell-cycle phases with one drug treatment were sampled. This allowed the present inventors to computationally isolate traces for cells that received drug at any time since the completion of anaphase.
Cells were seeded at least 24 hr prior to imaging in phenol-red-free full-growth medium in glass-bottom 96-well plates (CellVis P96-1.5H-N) that were coated with collagen prior to seeding. The seeding density was chosen such that the cells would remain sub-confluent until the end of the imaging period. Cells were first imaged for 16-20 hr in full-growth media without drug. The movie was then briefly paused and the full-growth media was replaced with full-growth media containing drug at the desired concentration. The plate was then re-inserted into the microscope and aligned to its prior position and imaging was continued for an additional 24-48 hr. Images were acquired every 12 min (for MCF10A or RPE-hTERT) or every 20 min (for MCF7 or OVCAR3) on a Nikon Eclipse Ti or Ti2 microscope with a 10×0.45 NA objective in a humidified, 37° C. chamber at 5% CO2. Exposure times for all movies for all channels were kept under 500 ms per timepoint to minimize phototoxicity. Cell tracking was performed using published MATLAB scripts (Cappell et al., 2016), as described previously (Arora et al., 2017). The tracking code is available for download at https://github.com/scappell/Cell_tracking. Cell counts over time were obtained by counting the number of segmented nuclei in each frame of the movie.

Experiment [2] has as its system Rb, Nucleolin, Cdc6 and Nbs1 phosphorylation. The experiment is described as follows: Immunofluorescence and western blotting of endogenous CDK2 substrates. It counts as cell-based, human. As to conditions: for Rb phosphorylation: 1 hr palbociclib treatment. How it is done: Cells were fixed for 15 minutes with freshly prepared 4% paraformaldehyde, washed twice with PBS, and incubated with a blocking buffer (3% BSA in PBS) for 1 hr at room temperature. Permeabilization was carried out using 0.2% Triton-X 100 for 15 min at 4° C. Primary antibody was diluted in blocking buffer and incubated with cells overnight at 4° C. followed by three washes with 1×PBS. Secondary antibodies conjugated to Alexa Fluor 488, Alexa Fluor 546 or Alexa Fluor 647 were incubated for 1 hr followed by three washes with 1×PBS. DNA was stained using Hoechst 33342 dye for 10 minutes at 1:10000 (ThermoFisher H3570). Images were acquired on a Nikon Eclipse Ti or Ti2 microscope with a 10×0.45 NA objective. DNA content was determined by taking the integrated intensity of each cell's Hoechst signal. Cells were delineated as 3-4N DNA content by plotting a histogram of DNA content and drawing a threshold and the end of the 2N peak.
Lysates were prepared using 1×LDS sample buffer (ThermoFisher NP007) using equal numbers of cells. Proteins were separated using NuPAGE precast polyacrylamide gels (ThermoFisher NP0301). Total protein was quantified using Azure Red Dye (Azure Biosystems AC2124) and was used to normalize the signal from antibodies of interest. Primary antibodies used are specified under the “Antibodies” section. HRP-conjugated or IR700 and IR800 labeled fluorescent secondary antibodies were used for visualization (Cell Signaling Technology 7074 and 7076).

The subject of experiment [3] is Kras^+/LSLG12V; Trp53^L/L lung tumors. The experiment can be described thus: Mouse lung tumor model, tumor volume by CT scans. It counts as in vivo. Here is the method:
To test the potential compensatory relationship between CDK2 and CDK4/6 in vivo, an established mouse lung tumor model driven by KRAS^G12V and TRP53 mutations was used. Kras^+/LSLG12V, Trp53^L/L mice intra-nasally infected with adenoviral particles encoding Cre recombinase developed lung tumors with a latency of 5 months. Once tumor development was detected by CT scans, animals were treated with either vehicle or palbociclib (70 mg/kg QD) for 28 days and tumor volumes were subsequently measured by CT scans at the end of the treatment period.
Mice: Kras^+/LSLG12V Trp53^L/L and Cdk2^−/− mice have been previously described (Guerra et al., 2003; Jonkers et al., 2001; Ortega et al., 2003). Compound mice using the following transgenes: Kras^+/LSLG12V, (Guerra et al., 2003); Trp53^L/L (Lee et al., 2012), and Cdk2^−/− (Ortega et al., 2003) were generated for this study. All animal experiments were approved by the Ethical Committees of the Spanish National Cancer Research Centre (CNIO), the Carlos III Health Institute and the Autonomous Community of Madrid (PROEX 270/14) and were performed in accordance with the guidelines stated in the International Guiding Principles for Biomedical Research Involving Animals, developed by the Council for International Organizations of Medical Sciences (CIOMS). Mice were housed in specific-pathogen-free conditions at CNIO's Animal Facility (AAALAC, JRS:dpR 001659). Female and male mice were used for the experiments. All mice were genotyped at the CNIO's Genomic Unit. […]
Micro CT imaging: Image studies were done by the Molecular Imaging Core Unit at the CNIO. […] Tumor volume was calculated as follows: (short axis x short axis x long axis/2).
Pharmacological treatment in mice: Kras^+/LSLG12V; Trp53^L/L; Cdk2^−/− and Kras^+/LSLG12V; Trp53^L/L; Cdk2^+/+ mice were infected with 10^6 pfu of Ad-Cre. Once tumors were detected by CT, mice harboring at least one tumor bigger than 3 mm^3 were enrolled in the different treatment groups. […] Drug efficacy was monitored by CT measurements.

[4] abbreviates: PF3600, MCF10A, MCF7 and RPE-hTERT cells.

Take `C[C@@]1(O)CCC[C@H]1n1c(=O)c(C(F)F)cc2cnc(NC3CCN(S(C)(=O)=O)CC3)nc21` [PF3600, 6-(difluoromethyl)-8-[(1R,2R)-2-hydroxy-2-methylcyclopentyl]-2-{[1-(methylsulfonyl)-piperidin-4-yl]amino}pyrido[2,3-d]pyrimidin-7(8H)-one]: the “cell proliferation and mitoses” value in experiment [1] (25 nM PF3600, OVCAR3 cells, remainder of the imaging period) was “inhibited cell proliferation and prevented all further mitoses”. Also, the mitosis entry in experiment [1] (100 nM PF3600, MCF7) was “blocked mitosis”. Besides, in experiment [1] (setting [4]), the “cell-cycle progression and mitosis after PF3600” value was “cell-cycle progression continued, and cells eventually completed mitosis”; the intermitotic times result is given as “longer intermitotic times”. Further, the “Rb and Nucleolin phosphorylation by immunofluorescence” value in experiment [2] (100 nM PF3600, MCF10A cells with 3-4N DNA content) was “transient reduction in Rb and Nucleolin phosphorylation followed by a rebound”. Moreover, in experiment [3] (PF3600 50 mg/kg BID for 4 weeks, Trp53^L/L mice), the tumor volumes entry was “significantly reduced tumor volumes”.

On to `CC(=O)c1c(C)c2cnc(Nc3ccc(N4CCNCC4)cn3)nc2n(C2CCCC2)c1=O` [palbociclib], for which the cell-cycle arrest result in experiment [1] (1 μM palbociclib (after the upcoming mitosis) or 9 μM RO3306 (toward end of cell cycle), MCF10A) was “CDK2^low G0 arrest”. The sensitivity to palbociclib result is recorded as “palbociclib-sensitive” in experiment [1] (MCF10A, MCF7 and RPE-hTERT cells); “resistant” in experiment [1] (OVCAR3 cells (amplification of cyclin E)). The results for the Rb phosphorylation result in experiment [2] (cells with 2N DNA content) and in experiment [2] (cells with 3-4N DNA content) were “dephosphorylation of Rb” and “no effect”, respectively. Besides, the tumor size result in experiment [3] (palbociclib 70 mg/kg QD for 4 weeks, Trp53^L/L, Cdk2^−/− mice, p=0.037) is recorded as “significantly reduced tumor size”. Moreover, in experiment [3] (palbociclib 70 mg/kg QD for 28 days, Trp53^L/L mice (Cdk2^+/+)), the “tumor volume fold change vs vehicle” value is reported as “no significant reduction in tumor burden”.
